In patent US20260166128A1, “HUMAN AMYLIN ANALOG, AND DERIVATIVE THEREOF AND USE THEREOF” (priority 2022, published 2026):
Numbered stars: 1 amine (or outer) side, 2 acyl side, 3 side chain; on linkers, the order of the positions; unused ones are H or OH. Bridge positions count the residues as written; N and C are the ends. Square brackets hold non-standard residues; d marks the D form. Side chains are listed from the residue outwards. Peptide text beside a SMILES is read from it. * marks the point of attachment. C20 diacid = O=C(O)CCCCCCCCCCCCCCCCCCC(=O)*; C18 diacid = O=C(O)CCCCCCCCCCCCCCCCC(=O)*; γGlu = O=C(O)[C@H](CCC(=O)[*:2])N[*:1]; βAsp = O=C(O)[C@H](CC(=O)[*:2])N[*:1]; Hyp = O=C(O)[C@@H]1C[C@@H](O)CN1; AEEA = NCCOCCOCC(=O)O

Target: T1, human amylin receptor (Homo sapiens, UniProt O60896+P30988)
T1 construct: host or cells: CHO-K1/Ga15/AMY3 cells, further stably transfected with a CRE-luciferase plasmid
T1 sequence (P30988 25-474): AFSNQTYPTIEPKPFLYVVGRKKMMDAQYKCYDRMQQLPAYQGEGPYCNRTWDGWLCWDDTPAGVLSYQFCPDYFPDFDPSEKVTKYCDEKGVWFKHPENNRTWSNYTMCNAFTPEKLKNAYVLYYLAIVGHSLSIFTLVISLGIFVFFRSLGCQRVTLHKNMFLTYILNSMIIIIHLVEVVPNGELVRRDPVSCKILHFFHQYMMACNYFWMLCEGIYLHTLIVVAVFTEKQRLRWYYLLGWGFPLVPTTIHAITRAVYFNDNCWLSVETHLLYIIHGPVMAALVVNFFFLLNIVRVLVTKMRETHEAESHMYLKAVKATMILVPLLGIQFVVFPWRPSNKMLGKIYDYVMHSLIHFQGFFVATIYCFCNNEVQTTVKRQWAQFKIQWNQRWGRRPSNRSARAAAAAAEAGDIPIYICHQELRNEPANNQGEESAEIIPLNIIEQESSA
T1 sequence (O60896 24-148 partner): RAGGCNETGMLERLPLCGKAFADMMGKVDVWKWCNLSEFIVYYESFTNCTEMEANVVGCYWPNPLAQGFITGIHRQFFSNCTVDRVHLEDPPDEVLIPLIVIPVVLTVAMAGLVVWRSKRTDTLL
Assay: Luciferase assay of amylin derivatives in amylin receptor/CRE-luc CHO cell line
Type: cell-based
Conditions: CHO-K1/Ga15/AMY3 CRE-luc cells, 24 hours incubation, F12 medium containing 10% FBS; read-out: EC50
Method: The experiment was intended to detect the activity or efficacy of the amylin derivatives on a human amylin receptor in vitro by luciferase assay.
50 μL of growth medium (F12 medium containing 10% FBS) was added into each well of a white 96-well plate, and the stably transfected amylin/CRE-lue CHO cells were inoculated into the white 96-well plate at a density of about 20,000 cells/well for activity determination.

Compound | EC50
CC[C@H](C)[C@H](NC(=O)[C@@H]1CCCN1C(=O)[C@H](CCCCN)NC(=O)[C@H](CC(C)C)NC(=O)[C@H](CC(N)=O)NC(=O)[C@H](CC(N)=O)NC(=O)[C@H](CO)NC(=O)[C@H](CO)NC(=O)[C@H](Cc1c[nH]cn1)NC(=O)[C@H](CCCNC(=N)N)NC(=O)[C@H](CC(C)C)NC(=O)[C@H](Cc1ccccc1)NC(=O)[C@H](CC(=O)O)NC(=O)[C@H](C)NC(=O)[C@H](CC(C)C)NC(=O)[C@H](CCCNC(=N)N)NC(=O)[C@H](CCC(N)=O)NC(=O)[C@@H](NC(=O)[C@H](C)NC(=O)[C@@H]1CSSC[C@H](NC(=O)[C@H](CCCCN)NC(=O)C[C@H](NC(=O)COCCOCCNC(=O)COCCOCCNC(=O)CCCCCCCCCCCCCCCCCCC(=O)O)C(=O)O)C(=O)N[C@@H](CC(N)=O)C(=O)N[C@@H]([C@@H](C)O)C(=O)N[C@@H](C)C(=O)N[C@@H]([C@@H](C)O)C(=O)N1)[C@@H](C)O)C(=O)N[C@@H](CC(C)C)C(=O)N1CCC[C@H]1C(=O)N1CCC[C@H]1C(=O)N[C@H](C(=O)N[C@@H](CC(N)=O)C(=O)N[C@H](C(=O)NCC(=O)N[C@@H](CO)C(=O)N[C@@H](CC(N)=O)C(=O)N[C@H](C(=O)N1C[C@H](O)C[C@H]1C(N)=O)[C@@H](C)O)C(C)C)[C@@H](C)O [PD184] ({C20 diacid-AEEA-AEEA-βAsp}-KCNTATCATQRLADFLRHSSNNLKPILPPTNVGSNT[Hyp]-NH2; disulfide 2-7 (inferred)) | 0.037 nM
CC[C@H](C)[C@H](NC(=O)[C@H](CCCCNC(=O)COCCOCCNC(=O)COCCOCCNC(=O)CC[C@H](NC(=O)CCCCCCCCCCCCCCCCC(=O)O)C(=O)O)NC(=O)CNC(=O)[C@H](CC(C)C)NC(=O)[C@H](CC(N)=O)NC(=O)[C@H](CC(N)=O)NC(=O)[C@H](CO)NC(=O)[C@H](CO)NC(=O)[C@H](Cc1c[nH]cn1)NC(=O)[C@H](CCCNC(=N)N)NC(=O)[C@H](CC(C)C)NC(=O)[C@H](Cc1ccccc1)NC(=O)[C@H](CC(=O)O)NC(=O)[C@H](C)NC(=O)[C@H](CC(C)C)NC(=O)[C@H](CCCNC(=N)N)NC(=O)[C@H](CCC(N)=O)NC(=O)[C@@H](NC(=O)[C@H](C)NC(=O)[C@@H]1CSSC[C@H](NC(=O)[C@@H](N)CCCNC(=N)N)C(=O)N[C@@H](CC(N)=O)C(=O)N[C@@H]([C@@H](C)O)C(=O)N[C@@H](C)C(=O)N[C@@H]([C@@H](C)O)C(=O)N1)[C@@H](C)O)C(=O)N[C@@H](CC(C)C)C(=O)N1CCC[C@H]1C(=O)N1CCC[C@H]1C(=O)N[C@H](C(=O)N[C@@H](CC(N)=O)C(=O)N[C@H](C(=O)NCC(=O)N[C@@H](CO)C(=O)N[C@@H](CC(N)=O)C(=O)N[C@H](C(=O)N1C[C@H](O)C[C@H]1C(N)=O)[C@@H](C)O)C(C)C)[C@@H](C)O [PD105] (H-RCNTATCATQRLADFLRHSSNNLGK([AEEA-AEEA-γGlu-C18 diacid])ILPPTNVGSNT[Hyp]-NH2; disulfide 2-7) | 0.033 nM
CC[C@H](C)[C@H](NC(=O)[C@@H]1CCCN1C(=O)CNC(=O)[C@H](CC(C)C)NC(=O)[C@H](CCCCNC(=O)CC[C@H](NC(=O)CCCCCCCCCCCCCCCCCCC(=O)O)C(=O)O)NC(=O)[C@H](CC(N)=O)NC(=O)[C@H](CO)NC(=O)[C@H](CO)NC(=O)[C@H](Cc1c[nH]cn1)NC(=O)[C@H](CCCNC(=N)N)NC(=O)[C@H](CC(C)C)NC(=O)[C@H](Cc1ccccc1)NC(=O)[C@H](CC(=O)O)NC(=O)[C@H](C)NC(=O)[C@H](CC(C)C)NC(=O)[C@H](CCCNC(=N)N)NC(=O)[C@H](CCC(N)=O)NC(=O)[C@@H](NC(=O)[C@H](C)NC(=O)[C@@H]1CSSC[C@H](NC(=O)[C@@H](N)CCCNC(=N)N)C(=O)N[C@@H](CC(N)=O)C(=O)N[C@@H]([C@@H](C)O)C(=O)N[C@@H](C)C(=O)N[C@@H]([C@@H](C)O)C(=O)N1)[C@@H](C)O)C(=O)N[C@@H](CC(C)C)C(=O)N1CCC[C@H]1C(=O)N1CCC[C@H]1C(=O)N[C@H](C(=O)N[C@@H](CC(N)=O)C(=O)N[C@H](C(=O)NCC(=O)N[C@@H](CO)C(=O)N[C@@H](CC(N)=O)C(=O)N[C@H](C(=O)N1C[C@H](O)C[C@H]1C(N)=O)[C@@H](C)O)C(C)C)[C@@H](C)O [PD086] (H-RCNTATCATQRLADFLRHSSNK([γGlu-C20 diacid])LGPILPPTNVGSNT[Hyp]-NH2; disulfide 2-7) | 0.033 nM
